Experiment [1] deals with T1, Adrenergic receptor alpha-1 (Rattus norvegicus, UniProt P15823+P23944+P43140).
T1 sequence (P15823 whole entry): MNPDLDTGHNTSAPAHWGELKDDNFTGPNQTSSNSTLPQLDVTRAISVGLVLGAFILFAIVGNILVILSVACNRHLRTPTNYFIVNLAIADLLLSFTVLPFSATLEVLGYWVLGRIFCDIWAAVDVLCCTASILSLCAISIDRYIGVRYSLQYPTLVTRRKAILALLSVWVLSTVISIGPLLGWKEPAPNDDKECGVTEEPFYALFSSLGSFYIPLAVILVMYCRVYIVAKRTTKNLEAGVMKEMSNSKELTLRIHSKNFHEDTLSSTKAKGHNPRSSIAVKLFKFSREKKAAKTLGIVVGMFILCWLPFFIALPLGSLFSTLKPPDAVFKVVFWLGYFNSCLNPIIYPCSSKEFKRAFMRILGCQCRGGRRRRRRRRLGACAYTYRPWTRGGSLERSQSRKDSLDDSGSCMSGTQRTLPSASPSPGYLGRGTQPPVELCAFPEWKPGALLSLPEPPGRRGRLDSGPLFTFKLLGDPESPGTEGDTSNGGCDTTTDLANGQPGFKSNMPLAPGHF
T1 sequence (P23944 whole entry): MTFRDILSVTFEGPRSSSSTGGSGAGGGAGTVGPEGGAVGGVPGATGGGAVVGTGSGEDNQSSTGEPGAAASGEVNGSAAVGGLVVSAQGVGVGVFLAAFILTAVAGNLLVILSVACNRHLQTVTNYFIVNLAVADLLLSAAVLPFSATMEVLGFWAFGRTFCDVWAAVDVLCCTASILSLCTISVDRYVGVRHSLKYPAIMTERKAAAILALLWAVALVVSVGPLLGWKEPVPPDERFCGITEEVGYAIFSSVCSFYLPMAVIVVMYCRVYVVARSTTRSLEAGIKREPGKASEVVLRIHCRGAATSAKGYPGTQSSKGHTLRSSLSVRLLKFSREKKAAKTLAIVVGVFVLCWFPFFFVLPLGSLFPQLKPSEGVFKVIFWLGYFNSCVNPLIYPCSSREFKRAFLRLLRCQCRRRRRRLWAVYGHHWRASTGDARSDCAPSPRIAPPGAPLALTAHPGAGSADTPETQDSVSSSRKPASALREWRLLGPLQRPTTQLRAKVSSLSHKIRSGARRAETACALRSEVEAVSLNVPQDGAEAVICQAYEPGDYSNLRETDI
T1 sequence (P43140 whole entry): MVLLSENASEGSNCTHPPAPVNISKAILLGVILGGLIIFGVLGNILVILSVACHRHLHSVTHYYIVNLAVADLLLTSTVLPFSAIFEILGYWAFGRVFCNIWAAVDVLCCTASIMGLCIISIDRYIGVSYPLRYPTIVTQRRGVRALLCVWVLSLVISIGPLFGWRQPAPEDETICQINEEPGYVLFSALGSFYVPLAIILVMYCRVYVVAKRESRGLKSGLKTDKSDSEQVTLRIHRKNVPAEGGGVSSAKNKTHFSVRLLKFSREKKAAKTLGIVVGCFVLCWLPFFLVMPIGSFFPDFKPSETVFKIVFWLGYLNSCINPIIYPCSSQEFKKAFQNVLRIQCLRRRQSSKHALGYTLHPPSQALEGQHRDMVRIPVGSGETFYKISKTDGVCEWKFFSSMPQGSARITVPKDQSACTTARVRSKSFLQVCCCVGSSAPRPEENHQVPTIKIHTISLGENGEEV
The experiment can be described thus: Alpha-1-adrenergic receptor binding affinity of the compound, value taken from literature. The format is protein assay.

The target in experiment [2] is T1, Adrenergic receptor alpha-1. The experiment can be described thus: Alpha-1 adrenergic receptor binding affinity of the compound, value taken from literature. Type of experiment: protein assay.
In experiment [3] the target is Adrenergic receptor alpha-2 (Rattus norvegicus) (UniProt P22086+P19328+P22909). The experiment can be described thus: Ratio of binding affinity towards Alpha-2 and alpha-1 adrenergic receptor. The format is protein assay.
The target in experiment [4] is T1, Adrenergic receptor alpha-1. The experiment can be described thus: Binding affinity towards alpha-1 adrenergic receptor in rat cortex membrane using [3H]-prazosin radioligand. Type of experiment: cell membranes.
Experiment [5] has as its target T2, Adrenergic receptor alpha-2 (Rattus norvegicus, UniProt P22086+P19328+P22909).
T2 sequence (P22086 whole entry): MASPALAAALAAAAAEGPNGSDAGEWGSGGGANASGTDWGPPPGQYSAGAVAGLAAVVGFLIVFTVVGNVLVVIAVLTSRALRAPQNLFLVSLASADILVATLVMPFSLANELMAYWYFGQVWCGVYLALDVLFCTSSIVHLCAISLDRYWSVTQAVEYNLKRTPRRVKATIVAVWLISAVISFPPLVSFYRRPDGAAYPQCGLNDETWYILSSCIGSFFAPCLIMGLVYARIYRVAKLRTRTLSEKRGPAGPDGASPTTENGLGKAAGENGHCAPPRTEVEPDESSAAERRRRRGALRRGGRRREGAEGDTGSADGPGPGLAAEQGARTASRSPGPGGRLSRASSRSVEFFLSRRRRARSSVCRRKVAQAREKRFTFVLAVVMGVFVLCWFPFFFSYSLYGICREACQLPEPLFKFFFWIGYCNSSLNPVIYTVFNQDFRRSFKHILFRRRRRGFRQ
T2 sequence (P19328 whole entry): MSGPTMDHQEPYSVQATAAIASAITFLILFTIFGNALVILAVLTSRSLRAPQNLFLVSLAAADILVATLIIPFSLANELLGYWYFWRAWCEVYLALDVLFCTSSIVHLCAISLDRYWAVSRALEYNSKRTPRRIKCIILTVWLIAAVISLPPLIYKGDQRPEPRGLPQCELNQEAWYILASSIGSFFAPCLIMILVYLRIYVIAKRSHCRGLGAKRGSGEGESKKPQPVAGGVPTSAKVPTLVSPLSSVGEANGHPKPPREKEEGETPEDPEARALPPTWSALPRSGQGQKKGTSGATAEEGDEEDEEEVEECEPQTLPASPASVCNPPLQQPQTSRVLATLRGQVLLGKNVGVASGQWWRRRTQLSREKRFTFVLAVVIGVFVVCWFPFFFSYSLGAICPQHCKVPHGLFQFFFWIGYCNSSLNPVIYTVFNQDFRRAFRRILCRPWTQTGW
T2 sequence (P22909 whole entry): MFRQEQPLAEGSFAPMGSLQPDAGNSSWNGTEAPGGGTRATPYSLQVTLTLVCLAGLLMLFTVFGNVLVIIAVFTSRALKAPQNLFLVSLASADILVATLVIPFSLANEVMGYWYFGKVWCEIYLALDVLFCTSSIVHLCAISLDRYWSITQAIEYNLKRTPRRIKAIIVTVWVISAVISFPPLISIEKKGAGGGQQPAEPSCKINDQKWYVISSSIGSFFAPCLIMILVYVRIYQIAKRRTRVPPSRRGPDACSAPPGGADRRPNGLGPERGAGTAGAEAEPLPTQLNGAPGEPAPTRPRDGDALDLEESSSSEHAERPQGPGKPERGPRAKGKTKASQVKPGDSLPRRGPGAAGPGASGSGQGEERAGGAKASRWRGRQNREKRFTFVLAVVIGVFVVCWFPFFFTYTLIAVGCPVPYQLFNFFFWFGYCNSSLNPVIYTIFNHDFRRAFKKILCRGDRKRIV
The experiment can be described thus: Binding affinity towards alpha-2 adrenergic receptor in rat cortex membrane using [3H]rauwolscine radioligand. Type of experiment: cell membranes.

Regarding `COc1ccccc1N1CCN(CCn2c(=O)[nH]c3c([nH]c4ccccc43)c2=O)CC1`, the Ki in experiment [1] came out at 0.21 nM.
Compound `COc1ccccc1N1CCN(CCCCN2C(=O)CCc3ccccc32)CC1` yielded a Ki in experiment [2] of 0.34 nM.
On the same count and under the same terms, in the case of `COc1ccccc1N1CCN(CCNC(=O)C23CC4CC(CC(C4)C2)C3)CC1` it was 17.5 nM; in that of `O=C1CCc2ccccc2N1CCCCN1CCN(c2ncccn2)CC1`, 374 nM; in that of `COc1ccccc1N1CCN(CCCCN2C(=O)CCC2=O)CC1`, 11.9 nM.
The same measure, in the same setting: for `CCC(=O)NCCN1CCN(c2ccccc2OC)CC1` the value was 258 nM.
With `COc1ccccc1OCCN1CCN(c2ccc(=O)n(CCCCN3CCN(c4ccccc4OC)CC3)n2)CC1`, the Ratio in experiment [3] was 103. Also, the Ki is listed as 0.6 nM in experiment [4] and 62 nM in experiment [5].
Taken in the same sequence, the figures for `COc1ccccc1OCCN1CCN(c2ccc(=O)n(CCCCCCCN3CCN(c4ccccc4Cl)CC3)n2)CC1` were 9.3, 15 nM and 139 nM.

Values taken from ChEMBL document CHEMBL1134688, “Synthesis, biological evaluation, and pharmacophore generation of new pyridazinone derivatives with affinity toward alpha(1)- and alpha(2)-adrenoceptors” (J Med Chem, 2001).
